IC50 and ring closure, isolated yield data for 14 compounds are collected here from patent US20260137703A1, “2-AMINO-PYRIDO[2,3-D]PYRIMIDIN-7(8H)-ONE AND 7-AMINO-1-PYRIMIDO[4,5-D]PYRIMIDIN-2(1 H)-ONE DERIVATIVES AS EGFR INHIBITORS FOR THE TREATMENT OF CANCER” (Cancer Research Technology Limited, priority 2022, published 2026).

Like-named read-outs stand apart in the source and are kept apart here.

Data set [1] addresses CtermHisTag-mEGFR Wild type (Homo sapiens, UniProt P00533).
The target in data set [2] is T1, Phospho-EGFR (Tyr1068) in H1975 cells (Homo sapiens, UniProt P00533, L858R/T790M).
T1 construct: host or cells: H1975
Put plainly: HTRF pEGFR/total EGFR in H1975 cells. Type of data set: cell-based. To be noted: ratio pEGFR/total EGFR, compound 3 hours. The gist of the method:
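Readout is the phospho-EGFR (Tyr1068) to total EGFR HTRF ratio, expressed relative to 0 μM control. Adhered H1975 cells were exposed to compound for 3 hours at 0.1% DMSO, duplicate wells, then lysed for 30 min at room temperature before two-wavelength fluorescence reading.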
(In TR-FRET formats the signal depends on donor and acceptor labels being close together.)

Data set [3] has as its target T2, Phospho-EGFR (Tyr1068) in H1975 C797S cells (CRISPR-edited EGFR C797S) (Homo sapiens, UniProt P00533, C797S/L858R/T790M).
T2 construct: host or cells: H1975 C797S (CRISPR-edited)
Put plainly: HTRF pEGFR/total EGFR in H1975 C797S cells. Type of data set: cell-based. The note with it: ratio pEGFR/total EGFR, compound 3 hours. Put shortly: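 Readout is the HTRF-measured Tyr1068 phospho-EGFR to total EGFR ratio, normalised to the 0 μM control as percent. Preceding this, CRISPR-edited H1975 C797S cells, plated 24 h earlier, were exposed 3 h to duplicate compound doses in medium with 0.1% DMSO, then lysed on a shaker.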

The conditions of data set [4]: THF.

CtermHisTag-mEGFR Wild type, sequence (P00533 whole entry): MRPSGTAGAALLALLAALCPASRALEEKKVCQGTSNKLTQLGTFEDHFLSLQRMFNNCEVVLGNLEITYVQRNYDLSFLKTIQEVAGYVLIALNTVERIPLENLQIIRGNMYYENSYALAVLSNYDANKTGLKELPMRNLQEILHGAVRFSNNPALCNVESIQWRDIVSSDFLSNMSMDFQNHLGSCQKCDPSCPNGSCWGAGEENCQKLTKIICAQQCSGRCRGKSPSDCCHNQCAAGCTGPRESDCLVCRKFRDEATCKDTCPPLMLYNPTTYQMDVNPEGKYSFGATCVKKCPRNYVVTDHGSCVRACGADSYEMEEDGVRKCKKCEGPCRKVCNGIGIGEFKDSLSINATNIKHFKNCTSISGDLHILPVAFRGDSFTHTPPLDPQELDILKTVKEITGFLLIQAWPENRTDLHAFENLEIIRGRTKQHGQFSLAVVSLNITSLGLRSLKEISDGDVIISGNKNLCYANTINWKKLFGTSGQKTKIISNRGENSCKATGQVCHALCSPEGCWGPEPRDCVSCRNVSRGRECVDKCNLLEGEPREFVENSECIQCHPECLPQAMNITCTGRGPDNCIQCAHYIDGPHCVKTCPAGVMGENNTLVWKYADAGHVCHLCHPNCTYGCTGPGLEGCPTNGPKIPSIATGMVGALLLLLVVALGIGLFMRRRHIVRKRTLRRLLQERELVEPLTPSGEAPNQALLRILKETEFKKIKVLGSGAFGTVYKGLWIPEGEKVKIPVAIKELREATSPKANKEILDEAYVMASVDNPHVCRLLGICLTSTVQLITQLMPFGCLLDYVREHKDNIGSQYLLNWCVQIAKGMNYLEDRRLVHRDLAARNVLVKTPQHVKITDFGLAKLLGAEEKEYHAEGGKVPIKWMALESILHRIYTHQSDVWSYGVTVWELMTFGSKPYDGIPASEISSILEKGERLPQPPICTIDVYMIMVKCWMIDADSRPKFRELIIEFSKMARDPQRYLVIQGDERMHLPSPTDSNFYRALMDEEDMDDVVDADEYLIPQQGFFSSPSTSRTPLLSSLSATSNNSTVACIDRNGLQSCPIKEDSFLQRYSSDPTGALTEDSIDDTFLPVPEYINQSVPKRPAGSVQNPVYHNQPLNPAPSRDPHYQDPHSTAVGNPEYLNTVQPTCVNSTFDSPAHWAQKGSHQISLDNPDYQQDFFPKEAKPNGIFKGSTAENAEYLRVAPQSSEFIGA
T1 sequence (P00533 25-1210 T790M/L858R): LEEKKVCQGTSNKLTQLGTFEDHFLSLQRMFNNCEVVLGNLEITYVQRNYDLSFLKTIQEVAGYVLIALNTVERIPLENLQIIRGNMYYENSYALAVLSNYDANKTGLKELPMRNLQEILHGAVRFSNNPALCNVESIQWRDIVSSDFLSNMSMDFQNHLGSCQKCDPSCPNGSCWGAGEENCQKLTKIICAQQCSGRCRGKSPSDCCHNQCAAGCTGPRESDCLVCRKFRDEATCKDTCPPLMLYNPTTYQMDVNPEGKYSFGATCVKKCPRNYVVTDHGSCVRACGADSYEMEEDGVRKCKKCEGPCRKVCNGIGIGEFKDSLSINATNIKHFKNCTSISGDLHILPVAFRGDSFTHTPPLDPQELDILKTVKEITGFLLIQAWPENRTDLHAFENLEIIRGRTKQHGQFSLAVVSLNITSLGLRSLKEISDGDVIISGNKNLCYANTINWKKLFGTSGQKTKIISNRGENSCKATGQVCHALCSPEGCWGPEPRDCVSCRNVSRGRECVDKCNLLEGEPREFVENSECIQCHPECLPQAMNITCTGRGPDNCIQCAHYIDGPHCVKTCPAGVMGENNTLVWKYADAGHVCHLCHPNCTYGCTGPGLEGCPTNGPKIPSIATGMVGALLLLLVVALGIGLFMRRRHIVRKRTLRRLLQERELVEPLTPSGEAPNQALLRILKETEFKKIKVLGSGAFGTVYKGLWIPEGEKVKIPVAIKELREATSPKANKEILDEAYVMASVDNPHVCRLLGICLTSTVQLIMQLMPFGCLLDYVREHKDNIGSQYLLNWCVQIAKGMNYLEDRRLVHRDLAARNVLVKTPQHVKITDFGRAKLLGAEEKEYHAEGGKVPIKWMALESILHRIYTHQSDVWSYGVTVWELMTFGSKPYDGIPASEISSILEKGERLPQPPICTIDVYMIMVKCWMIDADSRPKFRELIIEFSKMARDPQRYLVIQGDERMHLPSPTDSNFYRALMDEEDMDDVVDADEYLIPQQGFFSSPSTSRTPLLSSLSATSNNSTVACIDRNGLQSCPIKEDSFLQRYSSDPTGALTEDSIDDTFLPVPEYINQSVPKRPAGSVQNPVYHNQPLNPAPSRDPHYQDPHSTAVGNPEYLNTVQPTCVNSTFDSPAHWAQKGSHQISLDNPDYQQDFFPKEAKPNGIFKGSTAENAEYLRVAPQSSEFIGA
T2 sequence (P00533 25-1210 T790M/C797S/L858R): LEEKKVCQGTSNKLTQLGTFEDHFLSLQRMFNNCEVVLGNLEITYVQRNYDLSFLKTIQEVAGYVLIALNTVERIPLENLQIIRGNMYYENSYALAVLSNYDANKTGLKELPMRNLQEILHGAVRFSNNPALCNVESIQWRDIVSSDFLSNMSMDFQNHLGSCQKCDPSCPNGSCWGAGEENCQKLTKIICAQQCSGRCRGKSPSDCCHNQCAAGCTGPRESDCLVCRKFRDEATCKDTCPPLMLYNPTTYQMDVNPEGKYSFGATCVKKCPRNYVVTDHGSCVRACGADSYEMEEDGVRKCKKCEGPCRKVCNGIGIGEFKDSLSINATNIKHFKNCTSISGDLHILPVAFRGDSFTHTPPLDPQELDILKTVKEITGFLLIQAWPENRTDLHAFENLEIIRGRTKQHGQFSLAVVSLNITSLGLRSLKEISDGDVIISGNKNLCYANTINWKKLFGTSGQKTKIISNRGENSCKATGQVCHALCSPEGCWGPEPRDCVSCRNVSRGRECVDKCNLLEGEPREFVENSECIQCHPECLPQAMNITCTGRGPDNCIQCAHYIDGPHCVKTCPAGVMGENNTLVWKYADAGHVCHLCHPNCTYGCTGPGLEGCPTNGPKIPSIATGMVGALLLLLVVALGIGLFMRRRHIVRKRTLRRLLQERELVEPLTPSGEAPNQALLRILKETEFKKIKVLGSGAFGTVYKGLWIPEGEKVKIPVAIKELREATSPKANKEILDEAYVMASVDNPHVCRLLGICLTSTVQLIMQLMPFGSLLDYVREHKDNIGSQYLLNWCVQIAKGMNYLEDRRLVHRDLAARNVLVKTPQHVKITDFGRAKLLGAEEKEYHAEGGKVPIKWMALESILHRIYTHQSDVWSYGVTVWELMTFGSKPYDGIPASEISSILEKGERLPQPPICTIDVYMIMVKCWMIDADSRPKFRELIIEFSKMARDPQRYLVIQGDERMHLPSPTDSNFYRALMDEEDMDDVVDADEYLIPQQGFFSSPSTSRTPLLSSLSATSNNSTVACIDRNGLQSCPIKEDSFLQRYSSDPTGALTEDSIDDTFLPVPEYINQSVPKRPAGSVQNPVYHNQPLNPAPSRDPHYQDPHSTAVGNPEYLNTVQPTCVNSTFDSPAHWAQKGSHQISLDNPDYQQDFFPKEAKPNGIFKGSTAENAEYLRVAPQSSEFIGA

As a reminder, the IC50 is the concentration needed to halve the response being measured. For `C#Cc1cc(=O)n(C2CCCC2)c2nc(Nc3cccc(N(C)[C@H]4C[C@@H](CS(C)(=O)=O)C4)c3)ncc12` [Example 203], the values for the IC50 in data set [1], in data set [2] and in data set [3] were under 1 µM, over 3 µM and over 3 µM, respectively. For `C=Cc1c(-c2ccccc2Cl)c(=O)n(C)c2nc(Nc3ccc(N4CCN(C)CC4)cc3OC)ncc12` [Example 171, 6-(2-chlorophenyl)-5-ethenyl-2-{[2-methoxy-4-(4-methylpiperazin-1-yl)phenyl]amino}-8-methylpyrido[2,3-d]pyrimidin-7-one], the figures for the IC50 in data set [1] and in data set [2] were over 10 µM and over 3 µM, respectively. In the case of `CC(C)[Si](C#Cc1cc(=O)n2c3nc(ncc13)Nc1ccc(N3CCN(C)CC3)c(c1)CN(C)CCC2)(C(C)C)C(C)C`, the ring closure, isolated yield in data set [4] (from CC(C)[Si](C#Cc1cc(=O)[nH]c2nc(Nc3ccc(N4CCN(C)CC4)c(CN(C)CCCO)c3)ncc12)(C(C)C)C(C)C, other bond, 13-membered ring, PPh3/DIAD, 24.4 mM) stood at 50%.

In the case of `CC(C)N1CCN(c2ccc3cc2NC(=O)CCCn2c(=O)cc(C#C[Si](C(C)C)(C(C)C)C(C)C)c4cnc(nc42)N3)CC1`, the ring closure, isolated yield in data set [4] (from CC(C)N1CCN(c2ccc(Nc3ncc4c(C#C[Si](C(C)C)(C(C)C)C(C)C)cc(=O)[nH]c4n3)cc2NC(=O)CCCO)CC1, other bond, 13-membered ring, PPh3/DEAD, 72.2 mM) came to 44%. As to `CC(C)[Si](C#Cc1cc(=O)n2c3nc(ncc13)Nc1cccc(c1)OCC=CC2)(C(C)C)C(C)C`, the ring closure, isolated yield worked out at 33% in data set [4] (from CC(C)[Si](C#Cc1cc(=O)n(C/C=C\CO)c2nc(Nc3cccc(O)c3)ncc12)(C(C)C)C(C)C, ether bond, 13-membered ring, PPh3/DIAD, 25.0 mM) and 52% in data set [4] (from CC(C)[Si](C#Cc1cc(=O)n(C/C=C\CO)c2nc(Nc3cccc(O)c3)ncc12)(C(C)C)C(C)C, ether bond, 13-membered ring, PPh3/DIAD, 278.0 mM). As to `CC(C)[Si](C#Cc1cc(=O)n2c3nc(ncc13)Nc1ccc(N3CCN(C)CC3)c(c1)OCCC[C@H]2C)(C(C)C)C(C)C`, the ring closure, isolated yield in data set [4] (from CC(C)[Si](C#Cc1cc(=O)[nH]c2nc(Nc3ccc(N4CCN(C)CC4)c(OCCC[C@H](C)O)c3)ncc12)(C(C)C)C(C)C, other bond, 13-membered ring, PPh3/DIAD, 24.2 mM) was determined as 18%.

The compound `CC(C)[Si](C#Cc1cc(=O)n2c3nc(ncc13)Nc1ccc(N3CCN(C)CC3)c(c1)OCCCC2)(C(C)C)C(C)C` displayed a ring closure, isolated yield in data set [4] (from CC(C)[Si](C#Cc1cc(=O)[nH]c2nc(Nc3ccc(N4CCN(C)CC4)c(OCCCCO)c3)ncc12)(C(C)C)C(C)C, other bond, 13-membered ring, PPh3/DIAD, 25.0 mM) of 42%. For `CC(C)[Si](C#Cc1cc(=O)n2c3nc(ncc13)Nc1ccc(N3CCN(C)CC3)c(c1)CNCCC2)(C(C)C)C(C)C`, in data set [4] (from CC(C)[Si](C#Cc1cc(=O)[nH]c2nc(Nc3ccc(N4CCN(C)CC4)c(CNCCCO)c3)ncc12)(C(C)C)C(C)C, other bond, 13-membered ring, PPh3/DIAD, 20.5 mM), the ring closure, isolated yield stood at 53%. In data set [4] (from Cc1c(C#C[Si](C(C)C)(C(C)C)C(C)C)c2cnc(Nc3ccc(N4CCN(C)CC4)c(OCCCCCO)c3)nc2[nH]c1=O, other bond, 14-membered ring, PPh3/DEAD, 94.8 mM), `Cc1c(C#C[Si](C(C)C)(C(C)C)C(C)C)c2cnc3nc2n(c1=O)CCCCCOc1cc(ccc1N1CCN(C)CC1)N3` showed a ring closure, isolated yield of 51%. Compound `CC(C)[Si](C#Cc1cc(=O)n2c3nc(ncc13)Nc1ccc(N3CCN(C)CC3)c(c1)NCCCC2)(C(C)C)C(C)C` returned a ring closure, isolated yield in data set [4] (from CC(C)[Si](C#Cc1cc(=O)[nH]c2nc(Nc3ccc(N4CCN(C)CC4)c(NCCCCO)c3)ncc12)(C(C)C)C(C)C, other bond, 13-membered ring, PPh3/DIAD, 24.0 mM) of 38%.

In data set [4] (from CC(C)[Si](C#Cc1cc(=O)[nH]c2nc(Nc3ccc(N4CCN(C)CC4)c(COCCCCO)c3)ncc12)(C(C)C)C(C)C, other bond, 14-membered ring, PPh3/DEAD, 129.0 mM), `CC(C)[Si](C#Cc1cc(=O)n2c3nc(ncc13)Nc1ccc(N3CCN(C)CC3)c(c1)COCCCC2)(C(C)C)C(C)C` registered a ring closure, isolated yield of 28%.

As for “5-Methyl-3^4-(4-methylpiperazin-1-yl)-1^5-((triisopropylsilyl)ethynyl)-1^7,1^8-dihydro-2,5-diaza-1(2,8)-pyrido[2,3-d]pyrimidina-3(1,3)-benzenacyclooctaphane-1^7,6-dione”, the ring closure, isolated yield in data set [4] (other bond, 13-membered ring, PPh3/DEAD, 158.0 mM) came to 75%.

Take `CC(C)[Si](C#Cc1cc(=O)n2c3nc(ncc13)Nc1ccc(N3CCN(C)CC3)c(c1)COCCC2)(C(C)C)C(C)C`: the ring closure, isolated yield in data set [4] (from CC(C)[Si](C#Cc1cc(=O)[nH]c2nc(Nc3ccc(N4CCN(C)CC4)c(COCCCO)c3)ncc12)(C(C)C)C(C)C, other bond, 13-membered ring, PPh3/DIAD, 24.0 mM) was found to be 29%. The compound “3^4-(4-Methylpiperazin-1-yl)-1^5-((triisopropylsilyl)ethynyl)-1^7,1^8-dihydro-4-oxa-2-aza-1(2, 8)-pyrido[2,3-d]pyrimidina-3(1,3)-benzenacyclodecaphan-1^7-one” registered a ring closure, isolated yield in data set [4] (other bond, 15-membered ring, PPh3/DEAD, 158.0 mM) of 41%.
